Data taken from PubChem BioAssay (NCI).
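96-well plates; 48 h exposure; 5 concentrations. Endpoints by linear interpolation between flanking doses. Not reached: highest tested concentration assigned. TGI is the concentration that stops growth completely.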

What was measured:
Test in all cases: NCI tumour cell line growth inhibition, 48 h
786-0 renal = tested on: 786-0 renal
A498 renal = tested on: A498 renal
BT-549 breast = tested on: BT-549 breast
HCT-116 colon = tested on: HCT-116 colon
HT29 colon = tested on: HT29 colon
MCF7 breast = tested on: MCF7 breast
NCI-H522 lung = tested on: NCI-H522 lung
PC-3 prostate = tested on: PC-3 prostate
RPMI-8226 leukemia = tested on: RPMI-8226 leukemia
SN12C renal = tested on: SN12C renal

CCOC(=O)C1(C(N)=O)C(=O)c2ccncc2C1=O (stereo not given)
TGI (786-0 renal): > 100 µM | TGI (A498 renal): > 100 µM | TGI (BT-549 breast): > 100 µM | TGI (HCT-116 colon): > 100 µM | TGI (HT29 colon): > 100 µM | TGI (MCF7 breast): > 100 µM | TGI (NCI-H522 lung): > 100 µM | TGI (PC-3 prostate): > 100 µM | TGI (RPMI-8226 leukemia): > 100 µM | TGI (SN12C renal): > 100 µM

CC(=N\N)/C(C)=N/N=C(C)/C(C)=N/N=C(C)/C(C)=N/N=C(C)/C(C)=N/N
TGI (786-0 renal): > 100 µM | TGI (A498 renal): > 100 µM | TGI (BT-549 breast): > 100 µM | TGI (HCT-116 colon): > 100 µM | TGI (HT29 colon): > 100 µM | TGI (MCF7 breast): > 100 µM | TGI (NCI-H522 lung): > 100 µM | TGI (PC-3 prostate): > 100 µM | TGI (RPMI-8226 leukemia): > 100 µM | TGI (SN12C renal): > 100 µM

COc1ccc(/C=C2\CCCC(CN(C)C)C2=O)cc1 (stereo not given)
TGI (786-0 renal): 3.47 µM | TGI (A498 renal): 30.4 µM | TGI (BT-549 breast): 3.9 µM | TGI (HCT-116 colon): 3.19 µM | TGI (HT29 colon): 3.47 µM | TGI (MCF7 breast): 1.45 µM | TGI (NCI-H522 lung): 2.85 µM | TGI (PC-3 prostate): 18.4 µM | TGI (RPMI-8226 leukemia): 0.433 µM | TGI (SN12C renal): 7.12 µM

NC(=O)c1nnc2ccc(F)cc2c1N
TGI (786-0 renal): > 100 µM | TGI (A498 renal): > 100 µM | TGI (BT-549 breast): > 100 µM | TGI (HCT-116 colon): > 100 µM | TGI (HT29 colon): > 100 µM | TGI (MCF7 breast): > 100 µM | TGI (NCI-H522 lung): > 100 µM | TGI (PC-3 prostate): > 100 µM | TGI (RPMI-8226 leukemia): > 100 µM | TGI (SN12C renal): > 100 µM

Cc1c2c(c(C)n1-c1ccccc1)C(=O)N(CCCCN1CCN(c3ccccc3)CC1)C2=O
TGI (786-0 renal): 19 µM | TGI (A498 renal): 69 µM | TGI (BT-549 breast): 49.3 µM | TGI (HCT-116 colon): 20.9 µM | TGI (HT29 colon): 10.1 µM | TGI (MCF7 breast): 35.8 µM | TGI (NCI-H522 lung): 39.4 µM | TGI (PC-3 prostate): 39.5 µM | TGI (RPMI-8226 leukemia): 47.3 µM | TGI (SN12C renal): 43.9 µM

CC(C)(C)OC(=O)NCCCCC(N)C(N)=O (stereo not given)
TGI (786-0 renal): > 100 µM | TGI (A498 renal): > 100 µM | TGI (BT-549 breast): > 100 µM | TGI (HCT-116 colon): > 100 µM | TGI (HT29 colon): > 100 µM | TGI (MCF7 breast): > 100 µM | TGI (NCI-H522 lung): > 100 µM | TGI (PC-3 prostate): > 100 µM | TGI (RPMI-8226 leukemia): > 100 µM | TGI (SN12C renal): > 100 µM

O=c1cc(NCCCCCO)[nH]c(=O)[nH]1
TGI (786-0 renal): > 100 µM | TGI (A498 renal): > 100 µM | TGI (BT-549 breast): > 100 µM | TGI (HCT-116 colon): > 100 µM | TGI (HT29 colon): > 100 µM | TGI (MCF7 breast): > 100 µM | TGI (NCI-H522 lung): > 100 µM | TGI (PC-3 prostate): > 100 µM | TGI (RPMI-8226 leukemia): > 100 µM | TGI (SN12C renal): > 100 µM

CC(C)(C)c1cc(CC2C(=O)c3ccccc3C2=O)cc(C(C)(C)C)c1O
TGI (786-0 renal): 21.1 µM | TGI (A498 renal): 47.7 µM | TGI (BT-549 breast): 18.1 µM | TGI (HCT-116 colon): 14.1 µM | TGI (HT29 colon): 13.8 µM | TGI (MCF7 breast): > 100 µM | TGI (NCI-H522 lung): 14.4 µM | TGI (PC-3 prostate): 10.3 µM | TGI (RPMI-8226 leukemia): 3.34 µM | TGI (SN12C renal): 35.9 µM

CCCCCC(C)(C)CCC(=O)OC1OC(COC2OC(COC3OC(CO)C(O)C(O)C3O)C(O)C(O)C2O)C(O)C(O)C1O (stereo not given)
TGI (786-0 renal): > 100 µM | TGI (A498 renal): > 100 µM | TGI (BT-549 breast): > 100 µM | TGI (HCT-116 colon): > 100 µM | TGI (HT29 colon): > 100 µM | TGI (MCF7 breast): > 100 µM | TGI (NCI-H522 lung): > 100 µM | TGI (PC-3 prostate): > 100 µM | TGI (RPMI-8226 leukemia): > 100 µM | TGI (SN12C renal): > 100 µM

Cc1ccc(-c2nc(C)c(C(=O)Nc3ccc(Cl)cc3)s2)cc1
TGI (786-0 renal): 29.3 µM | TGI (A498 renal): 41.5 µM | TGI (BT-549 breast): 78.2 µM | TGI (HCT-116 colon): 41.2 µM | TGI (HT29 colon): > 100 µM | TGI (MCF7 breast): > 100 µM | TGI (NCI-H522 lung): > 100 µM | TGI (PC-3 prostate): > 100 µM | TGI (RPMI-8226 leukemia): > 100 µM | TGI (SN12C renal): > 100 µM

C=C(C)C(=O)O[C@H]1C/C(CO)=C/CCC(=C)C(OC(C)=O)[C@H]2OC(=O)C(=C)[C@H]12 (stereo not given in full)
TGI (786-0 renal): 12.8 µM | TGI (A498 renal): 43 µM | TGI (BT-549 breast): 12.1 µM | TGI (HCT-116 colon): 13.7 µM | TGI (HT29 colon): 21.7 µM | TGI (MCF7 breast): 22.3 µM | TGI (NCI-H522 lung): 11 µM | TGI (PC-3 prostate): 58.9 µM | TGI (RPMI-8226 leukemia): 19.3 µM | TGI (SN12C renal): 30.8 µM

NNC(=O)CSc1nc2ccc(I)cc2c(=O)n1Cc1ccccc1
TGI (786-0 renal): 30.7 µM | TGI (A498 renal): 33.2 µM | TGI (BT-549 breast): 42.6 µM | TGI (HCT-116 colon): 43.2 µM | TGI (HT29 colon): 44.8 µM | TGI (MCF7 breast): 59.4 µM | TGI (NCI-H522 lung): 30.7 µM | TGI (PC-3 prostate): 69.3 µM | TGI (RPMI-8226 leukemia): 54.7 µM | TGI (SN12C renal): 48.6 µM

Nc1cc2c3c(c1)Oc1cc(N)cc4c1C3c1c(cc(N)cc1O4)O2
TGI (786-0 renal): > 86.5 µM | TGI (A498 renal): > 100 µM | TGI (BT-549 breast): 51.3 µM | TGI (HCT-116 colon): 75.5 µM | TGI (HT29 colon): > 63.1 µM | TGI (MCF7 breast): > 60 µM | TGI (NCI-H522 lung): 45.5 µM | TGI (PC-3 prostate): 98.3 µM | TGI (RPMI-8226 leukemia): 52.2 µM | TGI (SN12C renal): 49.2 µM

Cc1c(NC(=S)NN)c(=O)n(-c2ccccc2)n1C
TGI (786-0 renal): > 100 µM | TGI (A498 renal): > 100 µM | TGI (BT-549 breast): > 100 µM | TGI (HCT-116 colon): > 100 µM | TGI (HT29 colon): > 100 µM | TGI (MCF7 breast): > 100 µM | TGI (NCI-H522 lung): > 100 µM | TGI (PC-3 prostate): > 100 µM | TGI (RPMI-8226 leukemia): > 100 µM | TGI (SN12C renal): > 100 µM

COc1cc(C2SCC(=O)N2c2cc(Cl)c(Cl)cc2Cl)cc(OC)c1OC (stereo not given)
TGI (786-0 renal): > 100 µM | TGI (A498 renal): > 100 µM | TGI (BT-549 breast): 64.7 µM | TGI (HCT-116 colon): > 100 µM | TGI (HT29 colon): > 100 µM | TGI (MCF7 breast): > 100 µM | TGI (NCI-H522 lung): > 100 µM | TGI (PC-3 prostate): > 100 µM | TGI (RPMI-8226 leukemia): 89.7 µM | TGI (SN12C renal): > 100 µM

O=C(Nn1c(-c2ccccc2)nc2ccccc2c1=O)c1ccc(CS)cc1
TGI (786-0 renal): 50.5 µM | TGI (A498 renal): 99.8 µM | TGI (BT-549 breast): 52.8 µM | TGI (HCT-116 colon): > 100 µM | TGI (HT29 colon): > 100 µM | TGI (MCF7 breast): > 100 µM | TGI (NCI-H522 lung): > 100 µM | TGI (PC-3 prostate): > 100 µM | TGI (RPMI-8226 leukemia): > 100 µM | TGI (SN12C renal): > 100 µM

C/C=C/[C@H]1O[C@@](O)([C@@H](C)[C@H](O)[C@H](C)[C@H]2OC(=O)/C(OC)=C/C(C)=C/[C@@H](C)[C@@H](O)[C@@H](CC)[C@@H](O)[C@H](C)C/C(C)=C/C=C/[C@@H]2OC)C[C@H](OC2CC(O)C(O)C(C)O2)[C@@H]1C (stereo not given in full)
TGI (786-0 renal): 2.92 µM | TGI (A498 renal): 12.2 µM | TGI (BT-549 breast): 14.1 µM | TGI (HCT-116 colon): 4.15 µM | TGI (HT29 colon): 8.03 µM | TGI (MCF7 breast): 8.58 µM | TGI (NCI-H522 lung): 1.48 µM | TGI (PC-3 prostate): 9.48 µM | TGI (RPMI-8226 leukemia): < 0.0075 µM | TGI (SN12C renal): 18.1 µM

CCCCCCCC1C(C)c2c([nH]c3ccccc23)C2C(=O)N(c3ccc(OC)cc3)C(=O)C21 (stereo not given)
TGI (786-0 renal): 3.28 µM | TGI (A498 renal): 5.47 µM | TGI (BT-549 breast): 6.56 µM | TGI (HCT-116 colon): 3.61 µM | TGI (HT29 colon): > 7.4 µM | TGI (MCF7 breast): > 10 µM | TGI (NCI-H522 lung): > 10 µM | TGI (PC-3 prostate): > 10 µM | TGI (RPMI-8226 leukemia): > 10 µM | TGI (SN12C renal): > 5.95 µM
